Laboratory results taken from patent US7105539B2, “Derivatives of succinic and glutaric acids and analogs thereof useful as inhibitors of phex” (Enobia Pharma, priority 2002, dated 2006).

Experiments:
sPHEX = target: T1, sPHEX (Homo sapiens, UniProt P78562); experiment: Protection of PHEX substrate PTHrP107-139 from sPHEX degradation (RP-HPLC); type: biochemical; settings: 1×10^−5M inhibitor, 1.0 μg sPHEX, 30 min, 37° C.; without inhibitor approximately 75% degraded
T1 construct: The soluble form of the metallopeptidase PHEX (sPHEX) was purified to homogeneity; made in house
T1 sequence (P78562 53-749 limits assumed): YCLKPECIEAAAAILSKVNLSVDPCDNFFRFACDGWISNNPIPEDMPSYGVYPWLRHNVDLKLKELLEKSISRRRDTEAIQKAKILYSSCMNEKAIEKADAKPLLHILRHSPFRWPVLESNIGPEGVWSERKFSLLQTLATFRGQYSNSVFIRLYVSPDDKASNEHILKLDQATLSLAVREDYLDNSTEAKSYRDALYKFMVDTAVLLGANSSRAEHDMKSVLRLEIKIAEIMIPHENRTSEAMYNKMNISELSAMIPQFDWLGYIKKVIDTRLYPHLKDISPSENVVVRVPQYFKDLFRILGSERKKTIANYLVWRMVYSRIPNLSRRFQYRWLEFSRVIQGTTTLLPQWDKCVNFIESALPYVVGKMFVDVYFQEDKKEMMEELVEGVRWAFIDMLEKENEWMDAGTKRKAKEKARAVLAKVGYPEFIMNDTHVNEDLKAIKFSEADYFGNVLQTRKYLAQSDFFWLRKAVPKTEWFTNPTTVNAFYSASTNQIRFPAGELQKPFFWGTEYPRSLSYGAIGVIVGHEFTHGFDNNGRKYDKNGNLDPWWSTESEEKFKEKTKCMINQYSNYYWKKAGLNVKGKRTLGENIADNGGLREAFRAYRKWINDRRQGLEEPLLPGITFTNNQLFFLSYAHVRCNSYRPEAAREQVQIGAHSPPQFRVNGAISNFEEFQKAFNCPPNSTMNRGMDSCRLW
Experimental: In general, in order to show inhibition of sPHEX, the enzyme is incubated in the absence or the presence of the inhibiting compound, and a substrate is added in conditions that are suitable for sPHEX enzymatic activity. Hydrolysis of the substrate in the absence or the presence of the inhibiting compound is monitored.
For example, 1.0 μg of purified sPHEX was first incubated at 37° C. for 15 min with or without 1×10^−5M of compound MH-2-64C (FIG. 1) in 90 μl 50 mM MES (2-(N-morpholino)ethanesulfonic acid) pH 6.5, 150 mM NaCl. Then, 2.5 μg of peptide PTHrP107-139 in 10 μl of the same buffer were added and the incubation continued for 30 min. The reaction mixture also contained 1.3 μg of the amino acid Phe which was used as an internal standard. After the incubation period, the reaction was stopped by the addition of EDTA to a final concentration of 5 mM. Detection of cleavage products was performed by reverse phase high performance liquid chromatography (RP-HPLC) on a C18 μBondapak™ analytical column (Waters, Mississauga, ON, Canada) with a UV detector set at 220 nm. […] Results were quantified by comparing the area under the undigested peak of PTHrP107-139, after normalization for the amount of Phe present in the sample. […]

rat mandibular defect = experiment: Bone lesion repair in rat mandibular defect model (hydroxyapatite particles soaked in inhibitor); type: in vivo; settings: for bone formation (scanning electron microscopy, % of total defect area): 14 days healing
Experimental: Osteogenic properties of PHEX inhibitors can be shown in a model of rat mandibular defect. For example, a 2 mm size bone defect was created in the rat mandible as described previously (Vu et al., 1999). Rats were anesthetized and the vestibular surface of the right mandibular ramus was exposed as follow: an incision was made through the skin along an imaginary line forming a 90° angle with the lower lip to access the muscle layer. A scalpel blade was used to make an incision parallel to the fibers of the deep portion of masseter muscle, about 2 mm posterior to the facial artery (largest branch of the external carotid), in the portion where it gives rise to the labial mandibular artery. The periosteum was elevated and the underlying bony surface exposed. A 2 mm×2 mm bony window was drilled between the second and third molar using a slow-speed dental drill with a carbide round burr size 1.4 mm (Brasseler) and a drill size 2 mm (Straumann Canada Ltd). Saline irrigation was used during the drilling. Porous hydroxyapatite particles (Fin-Ceramica Faenza s.r.l.) with pore size ranged from 450 to 600 μm were accommodated in the bony hole and pushed into it. The particles had been incubated previously in solutions of varying concentrations of PHEX inhibitor or vehicle for 16 to 24 hours at 4° C. Once the bony window was filled the lesion was covered with a membrane of hydroxyapatite (Fin-Ceramica Faenza s.r.l.) which was fixed to the surrounding bone surface with topical tissue adhesive. The muscle fibers were carefully repositioned on the mandible and sutured with absorbable surgical sutures (Chromic Gut, Ethicon Inc.). The skin was sutured for total coverage with silk sutures (Sherwood Davis & Geck, Wayne). After 7 days of treatment the bone lesion was exposed and varying concentrations of PHEX inhibitor or vehicle was reapplied to hydroxyapatite particles. Treatment was continued for another 7 days.
After the 14 day healing period, bone formation at the defect was evaluated by scanning electron microscopy and microcomputed tomography. Animals were sacrificed by intravascular perfusion through the left ventricle with 4% paraformaldehyde and 0.1% glutaraldehyde solution. Treated hemimandibles were taken, immersed in the fixative overnight at 4° C. then washed and kept in 0.1 M cacodylate buffer pH 8.0 until analysis. Specimens for quantification by scanning electron microscopy were dehydrated in a graded alcohol series and embedded in LR White resin (Marivac) for further sectioning along their longitudinal axis. […] Amount of bone tissue present in the sections was quantified by manual tracing using the MOP-3 system (Carl Zeiss) and was expressed as a percentage of the total defect area. […]

O=C(O)CC(CC(=O)NO)C(=O)NCCc1ccc(-c2ccccc2)cc1 (centres unmarked) [Example 126, 3-(2-Biphenyl-4-yl-ethylcarbamoyl)-4-hydroxycarbamoyl-butyric acid]
degradation of PTHrP107-139 by sPHEX (sPHEX): fully prevented | bone formation (scanning electron microscopy, % of total defect area) (rat mandibular defect; 1×10^−5 M on hydroxyapatite particles, compared to saline): reduced significantly | bone formation (microcomputed tomography 3D reconstruction) (rat mandibular defect; high inhibitor dose, one representative specimen): reduced bone formation | bone around particles (microcomputed tomography 3D reconstruction) (rat mandibular defect; low dose of inhibitor vs particles soaked in saline, one representative specimen): more bone | bone formation (scanning electron microscopy, % of total defect area) (rat mandibular defect; lower concentrations on hydroxyapatite particles): significantly stimulated
